Tests used:
Assay type in all cases: ADME, organism-based
[1] = AUC in Sprague-Dawley rat at 10 mg/kg, po; design: dose 10 mg/kg, route oral; conditions: plasma
[2] = Oral bioavailability in Sprague-Dawley rat at 2.5 mg/kg, iv and 10 mg/kg, po; conditions: in vivo
[3] = Ratio of drug level in Sprague-Dawley rat brain against plasma at 2.5 mg/kg, iv and 10 mg/kg, po after 1 hr; conditions: read-out: BPR
[4] = Ratio of drug level in Sprague-Dawley rat brain against plasma at 2.5 mg/kg, iv and 10 mg/kg, po after 4 hrs; conditions: read-out: BPR
[5] = Volume of distribution in Sprague-Dawley rat at 2.5 mg/kg, iv and 10 mg/kg, po; conditions: in vivo, read-out: Vdss

- AUC [1]: 859 ng·h/mL
- bioavailability [2]: 66%
- Kp at 1 h [3]: 9.5
- Kp at 4 h [4]: 25
- Vd [5]: 58 L/kg
Compound: CN(C)[C@@H]1CCN(c2ccc(-c3coc4cc(-c5ccc(Cl)cc5)ccc4c3=O)cn2)C1.Cl

Source: ChEMBL document CHEMBL1146192, “Substituted chromones and quinolones as potent melanin-concentrating hormone receptor 1 antagonists” (Bioorg Med Chem Lett, 2006)
